# Source: patent US9073876B2, “Flap modulators” (JANSSEN PHARMACEUTICA NV, priority 2013, dated 2015)
# What was measured:
# human FLAP = human FLAP (Homo sapiens (Human), UniProt P20292); assay: FLAP binding assay (HTRF); details: human FLAP-containing membranes, HTRF format; average of two assay plates, duplicates; read-out: FLAP Binding wild type HTRF Ki
# Outline: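 Read-out is the HTRF ratio. Each reported figure averages two assay plates on which samples were tested in duplicate.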
# [1] = system: leukotriene pathway in human whole blood (LTB4 levels); assay: Human whole blood assay (LTB4); type: cell-based; details: human whole blood diluted 1:1 in RPMI, stimulated with calcium ionophore A23187; single replicate
# Outline: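 Heparinised human whole blood diluted 1:1 in RPMI, pre-incubated 15 min at 37° Celsius with compound, then stimulated with A23187 (7 μg/mL) for 30 min at 37° Celsius. Plasma LTB4 measured by immunoassay kit; IC50 from 4-parameter fit; single replicate per plate, at least one healthy donor.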
# Sequence of human FLAP (P20292 whole entry): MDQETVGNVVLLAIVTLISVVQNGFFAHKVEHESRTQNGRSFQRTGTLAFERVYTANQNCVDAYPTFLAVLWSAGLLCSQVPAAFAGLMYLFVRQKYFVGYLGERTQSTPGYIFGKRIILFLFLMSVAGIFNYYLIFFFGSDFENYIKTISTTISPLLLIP
Compound,Ki (human FLAP) [nM],IC50 [1] [nM]
"CC(C)(C)c1ccc(-c2cnc(N)cn2)c(F)c1O[Si](C)(C)C(C)(C)C [Example 200, 5-(4-tert-Butyl-3-{[tert-butyl(dimethyl)silyl]oxy}-2-fluorophenyl)pyrazin-2-amine]",155,1360
"CC(C)(C)c1ccc(-c2cnc(N)cn2)c(F)c1Oc1ncccn1 [Example 201, 5-[4-tert-Butyl-2-fluoro-3-(pyrimidin-2-yloxy)phenyl]pyrazin-2-amine]",8.5,51.8
"CC(C)(C)c1ccc(-c2cnc(N)nc2)c(F)c1Oc1ncccn1 [Example 207, 5-[4-tert-Butyl-2-fluoro-3-(pyrimidin-2-yloxy)phenyl]pyrimidin-2-amine]",47.4,72.6
"CC(C)(C)c1ccc(-c2cnc(N)nc2)c(F)c1Oc1cc(N)ncn1 [Example 208, 5-{3-[(6-Aminopyrimidin-4-yl)oxy]-4-tert-butyl-2-fluorophenyl}pyrimidin-2-amine]",46.5,215
"Nc1cnc(-c2ccc(C3CCCC3)c(OCc3ccccc3)c2F)cn1 [Example 212, 5-[3-(Benzyloxy)-4-cyclopentyl-2-fluorophenyl]pyrazin-2-amine]",64,1100
"CC(C)Oc1c(C2CCCC2)ccc(-c2cnc(N)cn2)c1F [Example 213, 5-[4-Cyclopentyl-2-fluoro-3-(1-methylethoxy)phenyl]pyrazin-2-amine]",92.1,1010
"Fc1c(-c2cnc3[nH]ccc3n2)ccc(C2CCCC2)c1OCc1ccccc1 [Example 214, 2-[3-(Benzyloxy)-4-cyclopentyl-2-fluorophenyl]-5H-pyrrolo[2,3-b]pyrazine]",30.8,1090
"COc1c(C2CCC2)ccc(-c2cnc(N)c(C#N)n2)c1F [Example 218, 3-amino-6-(4-cyclobutyl-2-fluoro-3-methoxyphenyl)-pyrazine-2-carbonitrile]",77.3,> 5000
"Nc1cnc(-c2ccc(C3CCC3)c(Oc3ccnc(Oc4c(C5CCC5)ccc(-c5cnc(N)cn5)c4F)n3)c2F)cn1 [Example 224, 5,5′-((pyrimidine-2,4-diylbis(oxy))bis(4-cyclobutyl-2-fluoro-3,1-phenylene))bis(pyrazin-2-amine)]",23.2,287
"COc1cc(Oc2c(C3CCC3)ccc(-c3cnc4c(c3)OCCN4)c2F)ncn1 [Example 227, 7-(4-cyclobutyl-2-fluoro-3-((6-methoxypyrimidin-4-yl)oxy)phenyl)-3,4-dihydro-2H-pyrido[3,2-b][1,4]oxazine]",8.5,332
"Fc1c(-c2cnc3[nH]ccc3n2)ccc(C2CCC2)c1Oc1ncccn1 [Example 230, 2-(4-cyclobutyl-2-fluoro-3-(pyrimidin-2-yloxy)phenyl)-5H-pyrrolo[2,3-b]pyrazine]",2.5,238
"N#Cc1nccc(Oc2c(C3CCC3)ccc(-c3cnc(N)cn3)c2F)n1 [Example 234, 4-(3-(5-Aminopyrazin-2-yl)-6-cyclobutyl-2-fluorophenoxy)pyrimidine-2-carbonitrile]",1300,> 10000
"Cc1nc(Oc2c(C3CCC3)ccc(-c3cnc(N)cn3)c2F)cc(N(C)C)n1 [Example 235, 6-(3-(5-Aminopyrazin-2-yl)-6-cyclobutyl-2-fluorophenoxy)-N,N,2-trimethylpyrimidin-4-amine]",3.3,113
"Cc1cc(Oc2c(C3CCC3)ccc(-c3cnc(N)cn3)c2F)nc(N(C)C)n1 [Example 236, 4-(3-(5-Aminopyrazin-2-yl)-6-cyclobutyl-2-fluorophenoxy)-N,N,6-trimethylpyrimidin-2-amine]",2.2,37.1
"CN(C)c1cc(Oc2c(C3CCC3)ccc(-c3cnc(N)cn3)c2F)ncn1 [Example 237, 6-(3-(5-Aminopyrazin-2-yl)-6-cyclobutyl-2-fluorophenoxy)-N,N-dimethylpyrimidin-4-amine]",3.3,84.7
"CCOC(=O)c1c(C(F)(F)F)nn(C)c1Oc1c(C2CCC2)ccc(-c2cnc(N)cn2)c1F [Example 238, Ethyl 5-(3-(5-aminopyrazin-2-yl)-6-cyclobutyl-2-fluorophenoxy)-1-methyl-3-(trifluoromethyl)-1H-pyrazole-4-carboxylate]",155,571
"CS(=O)(=O)c1ccc(Oc2c(C3CCC3)ccc(-c3cnc(N)cn3)c2F)nc1 [Example 239, 5-(4-cyclobutyl-2-fluoro-3-((5-(methylsulfonyl)pyridin-2-yl)oxy)phenyl)pyrazin-2-amine]",8.3,197
"Nc1cnc(-c2ccc(C3CCC3)c(Oc3nccc(N4CCC5(CC4)OCCCO5)n3)c2F)cn1 [Example 241, 5-(3-((4-(1,5-dioxa-9-azaspiro[5.5]undecan-9-yl)pyrimidin-2-yl)oxy)-4-cyclobutyl-2-fluorophenyl)pyrazin-2-amine]",1.2,20.7
"CS(=O)(=O)NCCOc1c(C2CCC2)ccc(-c2cnc(N)cn2)c1F [Example 243, N-(2-(3-(5-Aminopyrazin-2-yl)-6-cyclobutyl-2-fluorophenoxy)-ethyl)-methane-sulfonamide]",236,859
"CC(C)(C)OC(=O)N1CC(COc2c(C3CCC3)ccc(-c3cnc(N)cn3)c2F)C1 [Example 246, tert-butyl-3-((3-(5-aminopyrazin-2-yl)-6-cyclobutyl-2-fluorophenoxy)-methyl)azetidine-1-carboxylate]",98.6,1590
"CC(C)(C)OC(=O)N1CCCC(COc2c(C3CCC3)ccc(-c3cnc(N)cn3)c2F)C1 (stereo not drawn) [Example 249, tert-Butyl 3-((3-(5-aminopyrazin-2-yl)-6-cyclobutyl-2-fluorophenoxy)methyl)piperidine-1-carboxylate]",208,1260

# The remaining compounds from weak to strong by Ki (human FLAP), led by results:
Ki (human FLAP) [nM],IC50 [1] [nM],Compound
462,1820,"Nc1cnc(-c2ccc(C3CCC3)c(OCCN3CCOCC3)c2F)cn1 [Example 244, 5-(4-Cyclobutyl-2-fluoro-3-(2-morpholinoethoxy)phenyl)pyrazin-2-amine]"
261,10000,"CC(C)(C)OC(=O)N1CCCC1COc1c(C2CCC2)ccc(-c2cnc(N)cn2)c1F (stereo not drawn) [Example 248, tert-butyl 2-((3-(5-aminopyrazin-2-yl)-6-cyclobutyl-2-fluorophenoxy)methyl)pyrrolidine-1-carboxylate]"
81.5,171,"COc1cc(Oc2c(C(C)(C)C)ccc(-c3cnc(N)cn3)c2F)ncn1 [Example 204, 5-{4-tert-Butyl-2-fluoro-3-[(6-methoxypyrimidin-4-yl)oxy]phenyl}pyrazin-2-amine]"
62.2,2800,"CCOC(=O)CCCOc1c(C2CCC2)ccc(-c2cnc(N)cn2)c1F [Example 245, Ethyl 4-(3-(5-aminopyrazin-2-yl)-6-cyclobutyl-2-fluorophenoxy)butanoate]"
40.2,150,"COc1c(C(C)(C)C)ccc(-c2cnc(N)cn2)c1F [Example 205, 5-(4-tert-Butyl-2-fluoro-3-methoxyphenyl)pyrazin-2-amine]"
24.2,1060,"Oc1c(C2CCC2)ccc(-c2cnc3c(c2)CCN3)c1F [Example 199, 6-Cyclobutyl-3-(2,3-dihydro-1H-pyrrolo[2,3-b]pyridin-5-yl)-2-fluorophenol]"
23.6,104,"CC(C)(C)c1cc(Oc2c(C3CCC3)ccc(-c3cnc(N)cn3)c2F)nc(N)n1 [Example 240, 4-(3-(5-aminopyrazin-2-yl)-6-cyclobutyl-2-fluorophenoxy)-6-(tert-butyl)pyrimidin-2-amine]"
23.3,51.1,"CC(C)(C)c1ccc(-c2cnc(N)nc2)c(F)c1Oc1nccc(N)n1 [Example 209, 5-{3-[(4-Aminopyrimidin-2-yl)oxy]-4-tert-butyl-2-fluorophenyl}pyrimidin-2-amine]"
21.8,1120,"Oc1c(C2CCC2)ccc(-c2cnc3[nH]ccc3c2)c1F [Example 220, 6-cyclobutyl-2-fluoro-3-(1H-pyrrolo[2,3-b]pyridin-5-yl)phenol]"
7.7,408,"COc1cc(Oc2c(C3CCC3)ccc(-c3cnc4[nH]ccc4n3)c2F)ncn1 [Example 229, 2-(4-cyclobutyl-2-fluoro-3-((6-methoxypyrimidin-4-yl)oxy)phenyl)-5H-pyrrolo[2,3-b]pyrazine]"
6.9,30.8,"CC(C)(C)c1ccc(-c2cnc(N)cn2)c(F)c1Oc1nccc(N)n1 [Example 203, 2-[3-(5-Aminopyrazin-2-yl)-6-tert-butyl-2-fluorophenoxy]pyrimidin-4-amine]"
4.1,871,"O=C(O)c1ccc(COc2c(C3CCC3)ccc(-c3cnc4c(c3)OCCN4)c2F)cc1 [Example 196, 4-{[6-Cyclobutyl-3-(3,4-dihydro-2H-pyrido[3,2-b][1,4]oxazin-7-yl)-2-fluorophenoxy]methyl}benzoic acid]"
3.6,30,"CC(C)Cc1cc(Oc2c(C3CCC3)ccc(-c3cnc(N)cn3)c2F)nc(N)n1 [Example 242, 4-(3-(5-aminopyrazin-2-yl)-6-cyclobutyl-2-fluorophenoxy)-6-isobutylpyrimidin-2-amine]"
2.5,68.4,"Fc1c(-c2cnc3c(c2)OCCN3)ccc(C2CCC2)c1Oc1ncccn1 [Example 225, 7-(4-cyclobutyl-2-fluoro-3-(pyrimidin-2-yloxy)phenyl)-3,4-dihydro-2H-pyrido[3,2-b][1,4]oxazine]"
1.4,90.1,"Nc1ccnc(Oc2c(C3CCC3)ccc(-c3cnc4c(c3)OCCN4)c2F)n1 [Example 226, 2-(6-cyclobutyl-3-(3,4-dihydro-2H-pyrido[3,2-b][1,4]oxazin-7-yl)-2-fluorophenoxy)pyrimidin-4-amine]"
